We go through two compounds from patent publication US20140050779A1, “[…]-2 INHIBITORS AND USES THEREOF” (SINGAPORE HEALTH SERVICES PTE. LTD., priority 2011, published 2014).

What all share (format): cell-based
Series [1] relates to cultured SF cells. Kind of series: effect of TG-2 inhibitors on cultured scleral fibroblast growth (XCELLigence). Here is the method: (§1) To test the effect of TG-2 inhibitors on cultured scleral fibroblast growth, cultured SF cells at passage 4 were treated with TG-2 inhibitors at baseline, 0.1, 1, 10 and 100 μM for 5 days. The SF cell growth was monitored by XCELLigence cell impedance.

In series [2] the test system is mouse SF. Described as above. Here is the method: as §1
Series [3] has as its system human SF. The description is as above. The method, then:
as §1

The test system of series [4] is TG-3. Kind of series: Western blot of TG proteins in human scleral fibroblasts after muscarinic agents. The note with it: 0.01-10 μM for 5 days. On the technique in general: Immunoblotting shows a protein as a band on a membrane.
The subject of series [5] is TG-1. Described as above. The note with it: 0.01-10 μM for 5 days.
Series [6] concerns TG-5. The description is as above. The note with it: 0.01-10 μM for 5 days.
For series [7], the system named is TGase 1 transcript. Description: qPCR of TGases mRNA in mouse scleral fibroblasts after muscarinic agents. The note with it: 0.01-10 μM for 5 days, qPCR normalized to GAPDH. Here is the method: (§2) P2 cultured mouse scleral fibroblasts were treated with atropine or carbachol at different concentrations of 0.01 μM, 0.1 μM, […], 5 μM and 10 μM for 5 days. Following 5 days of treatment, the total RNA was extracted from these cells and TGases transcript level was quantified via qPCR analysis. Height of bars show the means of three independent samples and error bars represent standard deviation. Values are normalized against GAPDH house keeping genes.
(§3) All cells used in examples described herein were between passages 2-4. Passaged cells were plated at a concentration of 2×10^5/mL into 6 well plates containing DMEM with 10% FBS. The cells were seen to attach to the bottom of the culture wells after 4 hours. Old media was removed from wells and 1 mL of drug was added with fresh full medium and incubated at 37° C. Fresh drugs were replaced daily consecutively for the next 5 days to avoid oxidation. The drugs/media was removed and wells were washed twice with 1×PBS. 200 μl of RIPA lysis buffer was added per well and incubated for 5 minutes and cells were scrapped into an eppendorf tube. The cells were stored at −20° C. until sonication. The cells were sonicated on ice thrice at 20% output power for 5 seconds each time and rested 1 minute in between each turn. Cell debris was spun down at 12000 rpm for 20 minutes. The supernatant was poured into a new eppendorf tube and cell concentrations were determined using the Dc Protein assay Kit (Bio-Rad, MA). Passaged cells were plated at a concentration of 1×10^5 into 6 well plates containing DMEM with 10% FBS. The cells were seen to attach to the bottom of the culture wells after 4 hours. Freshly prepared muscarinic agents' at base line, 0.1, 1, 10 and 100 μM concentrations were added for 5 days (Table 2). The culture medium was removed and fresh medium containing the same muscarinic drug added every day to avoid drug changes such as atropine oxidation. Cell lysate was collected for relative quantitative (q) PCR and protein analysis at day 5.
(§4) Total RNA was isolated from cultured human and mouse scleral fibroblasts using TRIzol reagent (Invitrogen life technologies, USA) in accordance with the manufacturer's instructions Chomczynski P, Sacchi N., “Single-step method of RNA isolation by acid guanidinium thiocyanate-phenol-chloroform extraction”, Anal. Biochem. 1987 April; 162(1):156-9. Genomic DNA was removed by digestion with DNase I (Amp Grade; Invitrogen-Gibco) for 15 minutes at room temperature. One microgram of total RNA was reverse-transcribed with random hexamers by using a first-strand cDNA synthesis kit (Invitrogen-Gibco). qPCR was performed in a 384-well plate format on an Roche 480 LightCycler Detection System (Roche Applied Science, Mannheim, Germany) with efficiency corrected software 4.0. PCR was performed using 50 ng of cDNA of each sample. The pre-validated hydrolysis probes for TG-2 were from human and mouse universal probe library (Roche, CA) and the primers for human and mouse are shown in Table 3. GAPDH Internal Standard (Roche) was used as an endogenous control. To standardize and evaluate scleral gene expression, aliquots of the same cDNA (50 ng) preparation were used as templates in all PCR reactions. The data was analyzed by comparative CT (MCT) method as previously described in Brink N, Szamel M, Young A R, Wittern K P, Bergemann J., “Comparative quantification of IL-1, IL-10, Il-10r, TNF and IL-7 mRNA levels in UV-irradiated human skin in vivo”, Inflamm Res. 2000 June; 49(6):290-6.

The test system of series [8] is TGase-3 transcript. Described as above. The note with it: 0.01-10 μM for 5 days, qPCR normalized to GAPDH. Here is the method:
as §2, §3, §4
For orientation: Real-time PCR tracks product formation cycle by cycle.

The subject of series [9] is TGase 5 transcript. The description is as above. The note with it: 0.01-10 μM for 5 days, qPCR normalized to GAPDH. Here is the method:
as §2, §3, §4

Series [10] deals with TGase 2 (TGM-2) transcript. The series is described as above. The note with it: 0.01-10 μM for 5 days, qPCR normalized to GAPDH. The method, then:
as §2
Murine scleral derived fibroblasts were cultured to passage 2 and treated to exogenous atropine or carbachol at 0.01 μM, 0.1 μM, 1 μM, 5 μM and 10 μM for 5 days. Following 5 days of treatment, the total RNA was extracted from these cells and RT-qPCR performed to determine transcript levels of TGM-2. The levels were normalized to GAPDH internal control. […] Height of bars or symbols represents mean and error bars SD. *: p<0.05 and **: p<0.001.
All cells used in examples described herein were between passages 2-4. Passaged cells were plated at a concentration of 2×10^5/mL into 6 well plates containing DMEM with 10% FBS. The cells were seen to attach to the bottom of the culture wells after 4 hours. […] The supernatant was poured into a new eppendorf tube and cell concentrations were determined using the Dc Protein assay Kit (Bio-Rad, MA). […] Cell lysate was collected for relative quantitative (q) PCR and protein analysis at day 5. […]

Series [11] concerns TG-3. Description: Western blot of TG proteins in mouse scleral fibroblasts after muscarinic agents. The note with it: 0.01-10 μM for 5 days. The method, then: as §3
(§5) The cells were lysed by sonification in 1×RIPA lysis buffer (santa cruz biotechnology, Sc-24948) with 10 μl PMSF solution, 10 μl sodium orthovanadate solution and 20 μl protease inhibitor cocktail solution. After centrifugation at 20,000×g at 4° C. for 20 minutes, and the supernatant collected. The protein content in the supernatants was measured using the DC Protein Assay kit (Bio-Rad, MA) following the manufacturer's instructions. Samples were stored at −80° C. until assayed.
(§6) The mouse and human scleral fibroblasts were treated with atropine or carbachol at 0.01, 0.1, 1, 5 and 10 μM concentrations for 5 days. Following 5 days of treatment, the total cellular protein was extracted from these cells and TG proteins detected via Western blot analysis.
(§7) Human and, mouse scleral fibroblast proteins in the supernatant were separated by SDS-PAGE, transferred to nitrocellulose membranes, blocked in 5% BSA in TBST (10 mM Tris-HCl [pH 8.0], 150 mM NaCl, and […] Tween-20) for 2 hours at room temperature, and incubated with the same anti-TG-2 antibody described herein at a dilution of 1:1000 and anti β-tubulin antibodies used as a positive control, for 1 hour at room temperature. The membranes were washed 3 times in TBST and incubated with HRP-conjugated secondary antibody (Chemicon International) at a dilution of 1:2500 for 1 hour at room temperature. Immunoreactive bands were visualized using the enhanced chemiluminescence method (GE Healthcare, Buckinghamshire, UK). The membrane was wrapped in plastic and placed against an X-ray film to expose for an appropriate length of time (30 seconds-5 minutes).

Series [12] has as its system TG-1. The series is described as above. The note with it: 0.01-10 μM for 5 days. The method, then:
as §3, §5, §6, §7

Series [13] concerns TG-2. The series is described as above. The note with it: 0.01-10 μM for 5 days, Western blot. Here is the method: as §3, §5, §6, §7
Series [14] concerns TG-2. Description: TG-2 colorimetric microassay (transamidase activity) in lysate of treated mouse scleral fibroblasts. The note with it: murine scleral derived fibroblasts, 0.01-10 μM for 5 days.
In series [15] the test system is TG-5. Description: Western blot of TG proteins in mouse scleral fibroblasts after muscarinic agents. The note with it: 0.01-10 μM for 5 days.

Entries after “also recorded” stand apart in the source; their conditions may differ.

As for `CN(C)c1cccc2c(S(=O)(=O)NCCCCCN)cccc12` [MDC, Monodansyl caderverine], in [1], the “effect of the higher concentrations on SF cells” value was “cell death and morphological change”. Besides, the entries for the “concentration at which effective on SF cell growth” value in series [2] and in series [3] were 50 µM and 10 µM, respectively.
As to `C[N+](C)(C)CCOC(N)=O` [carbachol], the TG-3 protein level result in series [4] and in [11] was “the converse observed; also recorded: decreased” each time. Further, the TG-1 protein level entry in series [5] and in series [12] was “the converse was true; also recorded: increased” in each case. The TG-5 protein level result in [6] and in series [15] was “the converse was true; also recorded: increased” each time. Also, the “TGase 1 transcript level” value in [7] is on record as “increased only by relatively higher concentrations”. Besides, the TGase-3 transcript level result in [8] is on record as “opposite findings”. For the same compound, the “TGase 5 transcript level” value in [9] is “increased only by relatively higher concentrations”. Further, in [10], the “TGase 2 (TGM-2) transcript level” value is on record as “opposite effect; also recorded: opposite findings”. In addition, the TG-2 protein level entry in [13] was “increased; also recorded: opposite effect”. For the same compound, the “transamidase (cross-linking) activity of TG-2” value in series [14] is “opposite effects”.
